Source: patent US11209440B2, “T cell balance gene expression, compositions of matters and methods of use thereof” (THE BROAD INSTITUTE, INC., priority 2014, dated 2021)
Entries after “also recorded” stand apart in the source; their conditions may differ.

How the values were obtained:
[1] = tested on: Th17 cells; assay: FACS of IL-17 and IL-23R.GFP in Th17 cells treated with free fatty acids; assay type: cell-based, mouse; conditions: 10 uM arachidonic acid or 20 uM palmitic acid, 48 h, FACS
Method: (§1) (A) Naïve T cells were sorted from either WT or IL-23RGFP reporter mice, activated with plate-bound anti-CD3/anti-CD28 and differentiated with TGFβ1+IL-6 for 48 hours. […] (B) Cells from WT and Rorc^−/− mice were sorted, differentiated and treated with FFA as in A. Cells were harvested for RNA purification and qPCR. (C) Naïve WT and CD5L^−/− T cells were differentiated as in A. Cells were then lifted, washed and replated in fresh media with no addition of cytokines and in the presence of control or 5 uM of arachidonic acid (PUFA). Cytokine profile of T cells were measured after PMA/ionomycin restimulation. […] Another 48 hours later, cells were harvested for nanostring analysis (D) or qPCR (E).

[2] = tested on: Th17 cells; assay: qPCR and Nanostring signature analysis of Th17 cells treated with free fatty acids; assay type: cell-based, mouse
Method: as §1
Next, the contribution of lipid saturation to Th17 cell pathogenicity was studied.

[3] = biological target: T1, Rorγt (Mus musculus, UniProt P51450); assay: Dual luciferase reporter assay in EL4 cells stably transfected with Rorγt vector; assay type: cell-based; set-up: expressed in transfected cells; host or cells: EL4 cells, stably transfected; conditions: EL4 cells with Rorγt and CD5L vector; 5, 0.5, 0.05 μM titration
T1 sequence (P51450 1-495 isoform P51450-2): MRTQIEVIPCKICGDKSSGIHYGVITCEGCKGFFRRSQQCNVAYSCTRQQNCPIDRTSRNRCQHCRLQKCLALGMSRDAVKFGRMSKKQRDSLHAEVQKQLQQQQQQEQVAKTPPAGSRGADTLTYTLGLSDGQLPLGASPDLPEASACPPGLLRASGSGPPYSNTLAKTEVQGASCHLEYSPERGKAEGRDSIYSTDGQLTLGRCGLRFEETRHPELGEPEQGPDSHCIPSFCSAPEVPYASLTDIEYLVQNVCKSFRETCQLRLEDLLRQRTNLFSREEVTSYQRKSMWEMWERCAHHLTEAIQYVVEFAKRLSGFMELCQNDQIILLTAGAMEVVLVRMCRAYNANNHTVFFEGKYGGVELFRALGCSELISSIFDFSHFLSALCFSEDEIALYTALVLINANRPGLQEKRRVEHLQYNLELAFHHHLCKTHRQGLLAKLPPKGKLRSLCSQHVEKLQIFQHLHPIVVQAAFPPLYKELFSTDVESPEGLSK
Method: Lipidome analysis of Th17 cells. (A) WT and CD5L^−/− naïve T cells were differentiated as in FIG. 46B in the presence of cytokines as indicated. Cells and supernatant were harvested at 96 hours and subjected to MS/LC. Three independent mouse experiments were performed. […] (B) Expression of representative metabolites including a cholesterol ester and a PUFA-containing TAG species. FIG. 48 C, D, E, F-J show as follows: (C) Metabolomic analysis of independent mouse experiments where T cells were differentiated under various cytokine conditions as indicated and harvested at 48 h and 96 h. (D,E) Rorγt ChIP from Th17 cells differentiated as described in A. under various conditions as indicated. F-K. Dual luciferase reporter assay was performed in EL4 cells stably transfected with a control vector or Rorγt vector. (F, G) CD5L retroviral vector was cotransfected in F and G at 0, 25, 50 and 100 ng/well. […] All ChIP and luciferase assay are representative of at least 3 independent experiments.

[4] = biological target: T2, PROCR (Mus musculus, UniProt Q64695); assay: qRT-PCR of pathogenic/non-pathogenic signature genes in Th17 cells differentiated in the presence of activated protein C; assay type: cell-based
T2 construct: endogenous in cells; host or cells: primary naïve CD4+ T cells polarised to Th17 (TGF-β1 + IL-6)
T2 sequence (Q64695 18-242): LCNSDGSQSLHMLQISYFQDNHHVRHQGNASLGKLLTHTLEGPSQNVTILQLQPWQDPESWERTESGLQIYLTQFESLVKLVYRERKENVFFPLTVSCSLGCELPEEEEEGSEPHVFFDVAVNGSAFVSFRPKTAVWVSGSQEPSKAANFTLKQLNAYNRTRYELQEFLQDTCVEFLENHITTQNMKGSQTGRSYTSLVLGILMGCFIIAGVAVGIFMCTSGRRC
From the text: FIG. 23A depicts quantitative RT-PCR analysis of mRNA expression of several pathogenic signature genes in Th17 cells differentiated with TGFβ1 and IL-6 in the presence of activated protein C (aPC) for 3 days in vitro. FIG. 23B depicts quantitative RT-PCR analysis of mRNA expression of several pathogenic signature genes in naïve CD4^+ T cells polarized under Th17 conditions, transduced with either GFP control retrovirus (Control RV) or PROCR-expressing retrovirus (PROCR RV) for 3 days. FIG. 23C depicts quantitative RT-PCR analysis of mRNA expression of several pathogenic signature genes in Th17 cells from EPCR δ/δ mice and control mice differentiated with TGFβ1 and IL-6 for 3 days in vitro.
FIGS. 32A-32D are a series of graphs depicting how PROCR and PD-1 expression affects Th17 pathogenicity. FIG. 32A depicts signature genes of pathogenic and non-pathogenic Th17 cells. Naïve CD4+ T cells were differentiated into non-pathogenic (TGFβ1+IL-6) or pathogenic (TGFβ3+IL-6 or IL-β1+IL-6) Th17 cells and PROCR expression was determined by quantitative PCR. FIG. 32B depicts how naïve WT or PROCRd/d CD4+ T cells were stimulated under Th17 polarizing conditions (TGFβ1+IL-6) in the presence or absence of aPC. Quantitative expression of three pathogenic signature genes was determined on day 3. […] Mice were monitored for EAE. […] Mice were monitored for EAE.

[5] = biological target: T2, PROCR; assay: Intracellular IFN-γ/IL-17 staining and IL-17 ELISA of Th17 cells differentiated with activated protein C; assay type: cell-based; conditions: aPC 300 nM; flow cytometry day 3, ELISA day 3 and 5
Method: FIG. 20A depicts how naïve CD4+ T cells were differentiated into Th17 cells by anti-CD3/anti-CD28 stimulation in the presence of activated protein C (aPC, 300 nM), the ligand of PROCR. On day 3, cells were stimulated with PMA and Ionomycin for 4 hr, stained intracellularly for IFN-γ and IL-17 and analyzed by flow cytometry. FIG. 20B depicts IL-17 production from Th17 cells (TGF-β+IL-6) differentiated with or without activated protein C (aPC and Ctl, respectively) was assessed by ELISA on Day 3 and 5. FIG. 20C depicts how naïve CD4+ T cells were polarized under Th17 conditions (TGF-β+IL-6), transduced with either GFP control retrovirus (Ctl RV) or PROCR-expressing retrovirus (PROCR RV). Intracellular expression of IFN-γ and IL-17 in GFP+ cells were assessed by flow cytometry. FIG. 20D depicts how naïve CD4+ T cells from EPCR δ/δ mice and control mice were polarized under Th17 conditions with TGF-β1 and IL-6. Intracellular expression of IFN-γ and IL-17 were assessed by flow cytometry.

[6] = tested on: EAE; assay: EAE (experimental autoimmune encephalomyelitis) clinical scoring; assay type: in vivo, mouse; conditions: schematic of PROCR regulation (FIG. 26D)
From the text: FIGS. 26A-26D are a series of graphs and illustrations depicting that PROCR deficiency exacerbates EAE severity. FIG. 26A depicts frequency of CD4+ T cells expressing IL-17 and PROCR isolated from EAE mice 21d after immunization with MOG35-55. FIG. 26B depicts how EAE was induced by adoptive transfer of MOG35-55-specific 2D2 cells transduced with a control retrovirus (Ctl_GFP) or a PROCR-expression retrovirus (PROCR_RV) and differentiated into Th17 cells. Mean clinical scores and summaries for each group are shown. Results are representative of one of two experiments. FIG. 26C depicts how Rag1−/− mice were reconstituted with either PROCR-deficient (EPCR δ/δ→Rag1−/−) or WT T cells (WT→Rag1−/−) and immunized with MOG35-55 to induce EAE. The mean clinical score of each group is shown. Results are representative of one of two experiments. FIG. 26D depicts a schematic representation of PROCR regulation. Rorγt, IRF4, and STAT3 induce PROCR expression.
CyTOF and flow cytometry: Active induction of EAE and disease analysis: For active induction of EAE, mice were immunized by subcutaneous injection of 100 μg MOG (35-55) ([…]) (SEQ ID NO: 1395) in CFA, then received 200 ng pertussis toxin intraperitoneally (List Biological Laboratory) on days 0 and 2. […]

CCCCCCCCCCCCCCCC(=O)O [SFA, palmitic acid]
percentage of IL-23R.GFP+ CD4 T cells ([1]; IL-23RGFP reporter Th17 (TGFβ1+IL-6) expanded with IL-23): increased the expression of both IL-17 and IL-23R expression, but this effect was not significant | percentage of IL-17+ CD4 T cells ([1]; WT Th17 (TGFβ1+IL-6) expanded with IL-23): increased the expression of both IL-17 and IL-23R expression, but this effect was not significant | 316 gene signature of Th17 cell differentiation and function ([2]; WT Th17 cells (TGFβ1+IL-6), 25 uM palmitic acid, Nanostring nCounter): more similar to CD5L^−/− Th17 cells | Il22 expression ([2]; qPCR): increased | expression of key pathogenicity signature genes Il10, Il23r, Ccl5, Csf2 and Lag3 ([2]; qPCR): reciprocally regulated

CC(CO)CCC[C@@H](C)[C@H]1CC[C@H]2[C@@H]3C(O)C=C4C[C@@H](O)CC[C@]4(C)[C@H]3CC[C@]12C (stereo partly shown) [7, 27 dihydroxycholesterol, 7, 27-dihydroxycholesterol]
Il17 reporter transcription under CD5L-driven suppression [3]: rescued the CD5L-driven suppression

B1: activated protein C: the ligand of PROCR (protein, UniProt P04070 200-461, looked up)
Vitamin K-dependent protein C …: DTEDQEDQVDPRLIDGKMTRRGDSPWQVVLLDSKKKLACGAVLIHPSWVLTAAHCMDESKKLLVRLGEYDLRRWEKWELDLDIKEVFVHPNYSKSTTDNDIALLHLAQPATLSQTIVPICLPDSGLAERELNQAGQETLVTGWGYHSSREKEAKRNRTFVLNFIKIPVVPHNECSEVMSNMVSENMLCAGILGDRQDACEGDSGGPMVASFHGTWFLVGLVSWGEGCGLLHNYGVYTKVSRYLDWIHGHIRDKEAPQKSWAP
modifications: Vitamin K-dependent protein C heavy chain activated two-chain form
notes: the ligand of PROCR
mRNA expression of pathogenic signature genes in Th17 cells ([4]; Th17 cells differentiated with TGFβ1 and IL-6 in the presence of aPC for 3 days, quantitative RT-PCR): impairs some pathogenic signature genes; also recorded: downregulation of the pathogenic signature genes IL-3, CXCL3, CCL4 and Pdp; also recorded: decreased the expression of some of the genes | expression of non-pathogenic signature genes in Th17 cells ([4]; Th17 polarizing conditions (TGFβ1+IL-6) with aPC, day 3): induces some non-pathogenic signature genes | cytokine production (IFN-γ, IL-17) from Th17 cells [5]: not essential for cytokine production | pathogenicity in EAE [6]: reduced pathogenicity
